Earlier results as cited in patent US6197535A, “Methods for purifying and assaying a conus γ-carboxylase” (University of Utah Research Foundation, priority 1999, dated 2001).

Test system: N-methyl-D-aspartate receptor
Conditions: cited from earlier work

Conantokin-G
inhibition of the N-methyl-D-aspartate receptor: inhibits
